US9211310B2, “Use of a Chinese medicine composition in preparing medicaments for treating secondary prevention of myocardial infarction” (TASLY PHARMACEUTICAL GROUP CO., LTD, priority 2010, dated 2015)

System: patients after acute myocardial infarction
Experiment: Life quality, Seattle Angina Questionnaire (SAQ), same clinical trial
Type: in vivo, human
Text: 3508 patients who were in accordance with the diagnostic standards of AMI for 28 days to 2 years and differentiated as Qi deficiency and blood stagnation syndrome by TCM were studied. 0.5 g Chinese medicine composition prepared by the method of EXAMPLE 1 (Coded as QSYQ) was administrated half an hour after meal, 3 times per day.
There were 19 questions in the Seattle angina questionnaire (SAQ), including 5 parts: physical limitation (PL), anginal stability (AS), anginal frequency (AF), treatment satisfaction (TS) and disease perception (DP). After being given necessary explanation by doctors, the questions were answered independently by patients.
They included the overall survival time, angina pectoris score, TCM symptom score and life quality score, where angina pectoris score, TCM symptom score and life quality score were evaluated at randomization, in 1st, 3rd, 6th, 9th, 12th month after treatment and 18th month after follow-up.
All evaluation results of SAQ were described during the period of observation, and Wilcoxon rank sum test was used for inter-group comparison.
The evaluation results in the SAQ were depicted in different observations, and inter-group comparison was tested by Wilcoxon Rank-sum test.

## CC(=O)Oc1ccccc1C(=O)O [Control group, aspirine]
12 months after treatment, FAS
  SAQ Question 1-5: Not limited, number of patients: 863
  SAQ Question 1-5: Not limited, percent of patients: (49.51%)
  SAQ Question 1-5: Other reasons, number of patients: 11
  SAQ Question 1-5: Other reasons, percent of patients: (0.63%)
  SAQ Question 1-5: Severely limited, number of patients: 13
  SAQ Question 1-5: Severely limited, percent of patients: (0.75%)
  SAQ Question 1-5: Slightly limited, number of patients: 517
  SAQ Question 1-5: Slightly limited, percent of patients: (29.66%)
  SAQ Question 1-9: Mildly limited, % of cases: (19.60%)
  SAQ Question 1-9: Mildly limited, cases: 336
  SAQ Question 1-9: Moderately limited, % of cases: (20.42%)
  SAQ Question 1-9: Moderately limited, cases: 350
  SAQ Question 1-9: Not limited, % of cases: (4.55%)
  SAQ Question 1-9: Not limited, cases: 78
  SAQ Question 1-9: Other reasons, % of cases: (5.89%)
  SAQ Question 1-9: Other reasons, cases: 101
  SAQ Question 1-9: Severely limited, % of cases: (31.62%)
  SAQ Question 1-9: Severely limited, cases: 542
  SAQ Question 1-9: Slightly limited, % of cases: (17.91%)
  SAQ Question 1-9: Slightly limited, cases: 307
12 months after treatment, PP
  SAQ 2nd question: Clearly increased, % of cases: (0.14%)
  SAQ 2nd question: Clearly increased, cases: 2
  SAQ 2nd question: Clearly reduced, % of cases: (30.04%)
  SAQ 2nd question: Clearly reduced, cases: 428
  SAQ 2nd question: Same, % of cases: (37.05%)
  SAQ 2nd question: Same, cases: 528
  SAQ 2nd question: Slightly increased, % of cases: (1.96%)
  SAQ 2nd question: Slightly increased, cases: 28
  SAQ 2nd question: Slightly reduced, % of cases: (30.81%)
  SAQ 2nd question: Slightly reduced, cases: 439
  SAQ 3rd question: 1-2 times per week, % of cases: (30.81%)
  SAQ 3rd question: 1-2 times per week, cases: 439
  SAQ 3rd question: 1-3 times per day, % of cases: (1.96%)
  SAQ 3rd question: 1-3 times per day, cases: 28
  SAQ 3rd question: <1 time per week, % of cases: (30.04%)
  SAQ 3rd question: <1 time per week, cases: 428
  SAQ 3rd question: No onset, % of cases: (0.00%)
  SAQ 3rd question: No onset, cases: 0
  SAQ 3rd question: ≧3 times per week, % of cases: (37.05%)
  SAQ 3rd question: ≧3 times per week, cases: 528
  SAQ 3rd question: ≧4 times per day, % of cases: (0.14%)
  SAQ 3rd question: ≧4 times per day, cases: 2
  SAQ Question 1-3: Mildly limited, number of patients: 30
  SAQ Question 1-3: Mildly limited, percent of patients: (2.11%)
  SAQ Question 1-3: Moderately limited, number of patients: 3
  SAQ Question 1-3: Moderately limited, percent of patients: (0.21%)
  SAQ Question 1-3: Not limited, number of patients: 1225
  SAQ Question 1-3: Not limited, percent of patients: (86.03%)
  SAQ Question 1-3: Other reasons, number of patients: 8
  SAQ Question 1-3: Other reasons, percent of patients: (0.56%)
  SAQ Question 1-3: Severely limited, number of patients: 1
  SAQ Question 1-3: Severely limited, percent of patients: (0.07%)
  SAQ Question 1-3: Slightly limited, number of patients: 157
  SAQ Question 1-3: Slightly limited, percent of patients: (11.03%)
  SAQ Question 1-4: Mildly limited, number of patients: 177
  SAQ Question 1-4: Mildly limited, percent of patients: (12.43%)
  SAQ Question 1-4: Moderately limited, number of patients: 41
  SAQ Question 1-4: Moderately limited, percent of patients: (2.88%)
  SAQ Question 1-4: Not limited, number of patients: 724
  SAQ Question 1-4: Not limited, percent of patients: (50.84%)
  SAQ Question 1-4: Other reasons, number of patients: 11
  SAQ Question 1-4: Other reasons, percent of patients: (0.77%)
  SAQ Question 1-4: Severely limited, number of patients: 2
  SAQ Question 1-4: Severely limited, percent of patients: (0.14%)
  SAQ Question 1-4: Slightly limited, number of patients: 469
  SAQ Question 1-4: Slightly limited, percent of patients: (32.94%)
  SAQ Question 1-5: Mildly limited, number of patients: 198
  SAQ Question 1-5: Mildly limited, percent of patients: (13.93%)
  SAQ Question 1-5: Moderately limited, number of patients: 52
  SAQ Question 1-5: Moderately limited, percent of patients: (3.66%)
  SAQ Question 1-5: Not limited, number of patients: 736
  SAQ Question 1-5: Not limited, percent of patients: (51.79%)
  SAQ Question 1-5: Other reasons, number of patients: 10
  SAQ Question 1-5: Other reasons, percent of patients: (0.70%)
  SAQ Question 1-5: Severely limited, number of patients: 3
  SAQ Question 1-5: Severely limited, percent of patients: (0.21%)
  SAQ Question 1-5: Slightly limited, number of patients: 422
  SAQ Question 1-5: Slightly limited, percent of patients: (29.70%)
  SAQ Question 1-9: Mildly limited, % of cases: (20.07%)
  SAQ Question 1-9: Mildly limited, cases: 278
  SAQ Question 1-9: Moderately limited, % of cases: (20.87%)
  SAQ Question 1-9: Moderately limited, cases: 289
  SAQ Question 1-9: Not limited, % of cases: (5.05%)
  SAQ Question 1-9: Not limited, cases: 70
  SAQ Question 1-9: Other reasons, % of cases: (6.28%)
  SAQ Question 1-9: Other reasons, cases: 87
  SAQ Question 1-9: Severely limited, % of cases: (29.75%)
  SAQ Question 1-9: Severely limited, cases: 412
  SAQ Question 1-9: Slightly limited, % of cases: (17.98%)
  SAQ Question 1-9: Slightly limited, cases: 249
Baseline, FAS
  SAQ 2nd question: Clearly increased, % of cases: (3.17%)
  SAQ 2nd question: Clearly increased, cases: 55
  SAQ 2nd question: Clearly reduced, % of cases: (12.46%)
  SAQ 2nd question: Clearly reduced, cases: 216
  SAQ 2nd question: Same, % of cases: (62.09%)
  SAQ 2nd question: Same, cases: 1076
  SAQ 2nd question: Slightly increased, % of cases: (6.92%)
  SAQ 2nd question: Slightly increased, cases: 120
  SAQ 2nd question: Slightly reduced, % of cases: (15.35%)
  SAQ 2nd question: Slightly reduced, cases: 266
  SAQ 3rd question: 1-2 times per week, % of cases: (15.35%)
  SAQ 3rd question: 1-2 times per week, cases: 266
  SAQ 3rd question: 1-3 times per day, % of cases: (6.92%)
  SAQ 3rd question: 1-3 times per day, cases: 120
  SAQ 3rd question: <1 time per week, % of cases: (12.46%)
  SAQ 3rd question: <1 time per week, cases: 216
  SAQ 3rd question: No onset, % of cases: (0.00%)
  SAQ 3rd question: No onset, cases: 0
  SAQ 3rd question: ≧3 times per week, % of cases: (62.09%)
  SAQ 3rd question: ≧3 times per week, cases: 1076
  SAQ 3rd question: ≧4 times per day, % of cases: (3.17%)
  SAQ 3rd question: ≧4 times per day, cases: 55
  SAQ Question 1-3: Mildly limited, number of patients: 149
  SAQ Question 1-3: Mildly limited, percent of patients: (8.57%)
  SAQ Question 1-3: Moderately limited, number of patients: 53
  SAQ Question 1-3: Moderately limited, percent of patients: (3.05%)
  SAQ Question 1-3: Not limited, number of patients: 1170
  SAQ Question 1-3: Not limited, percent of patients: (67.32%)
  SAQ Question 1-3: Other reasons, number of patients: 11
  SAQ Question 1-3: Other reasons, percent of patients: (0.63%)
  SAQ Question 1-3: Severely limited, number of patients: 15
  SAQ Question 1-3: Severely limited, percent of patients: (0.86%)
  SAQ Question 1-3: Slightly limited, number of patients: 340
  SAQ Question 1-3: Slightly limited, percent of patients: (19.56%)
  SAQ Question 1-4: Mildly limited, number of patients: 402
  SAQ Question 1-4: Mildly limited, percent of patients: (23.21%)
  SAQ Question 1-4: Moderately limited, number of patients: 208
  SAQ Question 1-4: Moderately limited, percent of patients: (12.01%)
  SAQ Question 1-4: Not limited, number of patients: 495
  SAQ Question 1-4: Not limited, percent of patients: (28.58%)
  SAQ Question 1-4: Other reasons, number of patients: 14
  SAQ Question 1-4: Other reasons, percent of patients: (0.81%)
  SAQ Question 1-4: Severely limited, number of patients: 59
  SAQ Question 1-4: Severely limited, percent of patients: (3.41%)
  SAQ Question 1-4: Slightly limited, number of patients: 554
  SAQ Question 1-4: Slightly limited, percent of patients: (31.99%)
  SAQ Question 1-5: Mildly limited, number of patients: 357
  SAQ Question 1-5: Mildly limited, percent of patients: (20.58%)
  SAQ Question 1-5: Moderately limited, number of patients: 238
  SAQ Question 1-5: Moderately limited, percent of patients: (13.72%)
  SAQ Question 1-5: Not limited, number of patients: 567
  SAQ Question 1-5: Not limited, percent of patients: (32.68%)
  SAQ Question 1-5: Other reasons, number of patients: 13
  SAQ Question 1-5: Other reasons, percent of patients: (0.75%)
  SAQ Question 1-5: Severely limited, number of patients: 53
  SAQ Question 1-5: Severely limited, percent of patients: (3.05%)
  SAQ Question 1-5: Slightly limited, number of patients: 507
  SAQ Question 1-5: Slightly limited, percent of patients: (29.22%)
  SAQ Question 1-9: Mildly limited, % of cases: (14.70%)
  SAQ Question 1-9: Mildly limited, cases: 249
  SAQ Question 1-9: Moderately limited, % of cases: (21.19%)
  SAQ Question 1-9: Moderately limited, cases: 359
  SAQ Question 1-9: Not limited, % of cases: (2.36%)
  SAQ Question 1-9: Not limited, cases: 40
